Measured values taken from US10913750B2, “Tubulin-binding compounds, compositions and uses related thereto” (The Regents of the University of California, priority 2015, dated 2021).

Assays:
Assay type in all cases: cell-based
M318 = assay: CellTiter-Glo cell viability, M318
Protocol: (§1) To determine if MI-181 had broad anti-cancer activity, we treated a diverse panel of cancer cell lines including cervical adenocarcinoma (HeLa), breast adenocarcinoma (MCF7), melanoma (M233), osteosarcoma (U205), acute lymphoblastic leukemia (CCRF-CEM), non-small cell lung carcinoma (NCI-H460), and breast adenocarcinoma (MCF7) with MI-181 and determined its cell viability IC50 (FIGS. 13A and 13B). […] Therefore, the efficacy of MI-181 was analyzed in a panel of melanoma cell lines with defined genetic backgrounds including BRAF^V600E and NRAS^Q61L mutations and varied sensitivities to Vemurafenib (BRAF inhibitor) and Trametinib (MEK inhibitor), which are currently used to treat BRAF^V600E melanomas^43,44 (FIG. 10c). […] As a general trend BRAF^V600E cell lines were slightly more sensitive than NRAS^Q61L cell lines and MI-181 was effective in Vemurafenib and Trametinib resistant cell lines (FIG. 10c and Table 3). Finally, we tested the ability of MI-181 to inhibit melanoma colony formation using the M233 and M308 cell lines (both resistant to Vemurafenib). Indeed, MI-181 was a potent inhibitor of colony formation (percentage colony formation for 10 nM MI-181=0.2±0.1 and 0.8±0.7; for 10 nM colchicine=0.1±0.06 and 1.5±0.5; and for 10 nM Vemurafenib=94±7 and 102±5) (FIG. 10d). Thus, MI-181 is a potent inhibitor of melanoma cell lines. […]

M368 = assay: CellTiter-Glo cell viability, M368
Protocol: as §1

HeLa cells = assay: CellTiter-Glo cell viability, HeLa cells; conditions: Homo sapiens, HeLa
Protocol: The cell viability IC50 of each compound was determined using Promega CellTiter-Glo Luminescent Cell Viability Assay kit by measuring the total ATP levels to quantify the number of metabolically active cells upon drug treatment as described in Crouch et al., J Immunol Methods 1993, 160, (1), 81-8. Briefly, the compounds were suspended in DMSO at 10 mM and diluted in 384 plates (20 μl/well in DMSO) in triplicate by a 14-point titration (12 nM to 100 μM). 50 μl of HeLa cells or patient derived glioblastoma cells (HK-309) (2000 cells/well) were then treated with the prepared dilutions of the drugs (0.5 μl) and incubated at 37° C. and 5% CO2. 72 hours later 50 μl of CellTiter-Glo reagent was added to each well followed by a 2 minutes shaking and a 10-minute incubation to lyse the cells. The relative luminescent intensity units (RLU) of each well was measured using a Tecan M1000 microplate reader (Tecan Group Ltd.) with its green filter and 1 second integration time.
Cells used in Example 2 and other examples disclosed herein were cultured as follows: Adherent HeLa cells and patient derived glioblastoma cells were grown with 5% CO2 at 37° C. in F12:DMEM 50:50 medium (Invitrogen) containing 10% FBS and 1% penicillin/streptomycin. To obtain HeLa cells synchronized in mitosis, cycling cells were treated with 2 mM thymidine (Sigma-Aldrich) for eighteen hours, washed three times with PBS, and released into fresh media until they entered mitosis eight hours post-release. Patient-derived glioblastoma cells (HK-309) were collected and grown with approval from the UCLA Institutional Review Board. HK-309 was derived from a recurrent glioblastoma taken from a person. The cells were initially propagated as cancer stem cell-containing spheres in serum-free medium containing basic fibroblast growth factor and epidermal growth factor (Preprotech) as described previously by Visnyei et al., Mol Cancer Ther 2011, 10, (10), 1818-28.
For mitotic arrest IC50s, cells were treated with a twenty-point-2-fold-titration (190 pM to 10 μM) of each compound tested for 20 hours. For cell viability IC50s, cells were treated with a fourteen-point-2-fold-titration (12.2 nM to 100 μM). Mitotic arrest IC50 was determined by measuring the percent G2/M arrest using the Vybrant DyeCycle Green (Invitrogen) assay described above. Cell viability IC50 was determined using the CellTiter-Glo Assay (Promega), which measures total ATP levels. Plates were read with a Tecan M1000 micro-plate reader at 540 nm. The CDD software was used for generating IC50 and IC90 values.

- IC50 (HeLa cells): 17.4 nM
SMILES: Cc1cc2nc(/C=C/c3cccnc3)sc2cc1C [MI-181]
- IC50 (M318): 54.9 nM
- IC50 (M368): 42.1 nM
